One compound from US12508323B2, “Method of treatment of colorectal, breast and lung cancer with metal containing immune agonist complexes” (HANGZHOU XINGAO BIOTECHNOLOGY CO., LTD., priority 2020, dated 2025) can be followed below.

The test system of experiment [1] is lung cancer Lewis tumor line LL/2. The experiment in a line: Subcutaneous transplantation tumor model, LL/2 in C57BL/6 mice. The format is in vivo. Conditions: i.p. 10 mg/kg (nanobody 200 μg/mouse) once a day for 21 days. How it is done: (§1) Specific pathogen free (SPF)-grade BALB/C and C57BL/6 male mice, aged 7-8 weeks and weighing 20-22 g, were purchased from Shanghai Slac Laboratory Animal Co., Ltd (Laboratory animal quality certificate number: SCXK (Shanghai)2007-0005.
(§2) Mice were injected intraperitoneally with the immune agonist or complex with a dose of 10 mg/kg, or each injected intraperitoneally with 200 μg of the nanobody.
(§3) Administration route: intraperitoneal injection.
(§4) Frequency: once a day for consecutive 21 days.
(§5) Cancer cells were cultured, passaged, collected at the logarithmic phase of cells, and prepared into a cell suspension at a concentration of (1.0×10^7) per ml. Mice were injected with 0.2 ml of the cell suspension at the axilla of the right forelimb (cell number 2.0×10^6 cells/each), and were tumorigenic in about 8 days. These mice were randomly divided into 10 groups equally, namely, group A: negative control group (saline group), group B: positive control (cGAMP) group (dose: 10 mg/kg), group C: MncGAMP group (dose: 10 mg/kg), group D: anti-PD-L1 nanobody group, group E: anti-CD47 nanobody group, group F: anti-TfR1 nanobody group, group G: complex V group (dose: 10 mg/kg), group H: complex VI group (dose: 10 mg/kg), group I: complex IX group (dose: 10 mg/kg), and group J: complex VIII group (10 mg/kg). […]
(§6) The data were expressed as ×±s and processed by SPSS10.0 software. […]

The test system of a further experiment is OVA. The experiment in a line: Immune adjuvant function with OVA immunization (ELISA). It is filed as in vivo. The following applies: values of log2; s.c. 10 μg OVA + 100 μg adjuvant on days 1, 7, 14; sampled day 21; C57BL/6 mice. The method, then: Specific pathogen free (SPF)-grade C57BL/6 male mice, aged 7-8 weeks and weighing 20-22 g, were purchased from American Animals Inc. The aluminum adjuvant and OVA were purchased from Invitrogen company.
The mice were divided into 7 groups (10 mice in each group), namely, group A: OVA+cGAMP; group B: OVA+MncGAMP; group C: OVA+complex VIII; group D: OVA+complex IV; group E: OVA+complex VII; group F: OVA+aluminum adjuvant; and group G: OVA.
Each mouse was injected subcutaneously with 10 μg of OVA and 100 μg of aluminum adjuvant or a different species of cGAMP (or the immune agonist complex), and those not injected were negative control groups. Immunization was performed once on days 1, 7, and 14, respectively, and lung lavage fluid was obtained and blood samples taken on day 21. The potency of the immune agonist and the complex as adjuvants to induce nanobody production was determined by ELISA, and the results were shown in Table 7.
In general terms: An ELISA detects its analyte on a solid surface through an enzyme-linked reagent.

In experiment [2] the test system is colorectal cancer cell line CT26. The experiment in a line: Subcutaneous transplantation tumor model, CT26 in BALB/C mice. It is filed as in vivo. Conditions: i.p. 10 mg/kg (nanobody 200 μg/mouse) once a day for 21 days. How it is done:
as §1, §2, §3, §4, §5, §6

The next experiment relates to TREM2. Briefly: TREM2 expression in brain tissues of AD mice. The format is in vivo. Conditions: 10 mg/kg i.p., 60 days of administration. From the text: ELISA kits were purchased from Cloud Clone. Flow cytometry nanobodies were purchased from eBiosciences. RT-PCR reagents were purchased from Takara. Immune fluorescence and immune histochemistry nanobodies were purchased from Abcam. Other reagents were purchased from Sigma-Aldrich. Primer synthesis was done by Shanghai Biotechnology Co. Laser confocal microscope was purchased from Leica (Germany). 7500 quantitative PCR instrument was purchased from Applied Biosystems ABI (USA). Light microscope was purchased from Leica (Germany). Enzyme marker was purchased from Hangzhou Aosheng Company. Attune flow cytometer was purchased from Thermo Fisher Scientific. RT-PCR in vitro TREM2 content was determined, and the TREM2 primer sequences were as follows:
Whether mRNA levels of TREM2 in brain tissues of mice were altered after administration of the immune agonist and complexes thereof was determined.

Experiment [3] deals with breast cancer cell line 4T1. The experiment in a line: Subcutaneous transplantation tumor model, 4T1 in BALB/C mice. The following applies: i.p. 10 mg/kg (nanobody 200 μg/mouse) once a day for 21 days. It is filed as in vivo. The method, then: as §1, §2, §3, §4, §5, §6
For experiment [4], the system named is murine breast cancer cell line 4T1-luc. The experiment in a line: Anti-metastasis of murine breast cancer 4T1-luc, in vivo optical imaging. Conditions: 4T1-luc in BALB/C mice, i.p. 10 mg/kg (nanobody 200 μg/mouse) once a day, sites of metastasis. The method, then: Specific pathogen free (SPF)-grade BALB/C male mice, aged 7-8 weeks and weighing 20-22 g, were purchased from Shanghai Slac Laboratory Animal Co., Ltd (Laboratory animal quality certificate number: SCXK (Shanghai)2007-0005.
Mice were injected intraperitoneally with the immune agonist complex or MncGAMP with a dose of 10 mg/kg, or each injected intraperitoneally with 200 μg of the nanobody.
as §3, §4
Used herein was murine breast cancer cell line 4T1-luc (luciferase labeled tumor cells), which was provided by medical department of Zhejiang University School. The 4T1-luc cell line in BALB/C mice had similar growth and metastatic properties to breast tumors in humans, which was an animal model for […] breast cancer in humans. The 4T1-luc cell line spontaneously produced highly metastatic tumors that metastasize to the lung, liver, lymph nodes, and brain, while forming the primary site at the injection site. Luciferase was a general term for a class of enzymes in living organisms that catalyze the oxidative luminescence of luciferin or firefly aldehyde, which was derived from organisms naturally capable of luminescence.
Cancer cells were cultured, passaged, collected at the logarithmic phase of cells, and prepared into a cell suspension at a concentration of (1.0×10^7) per ml. Mice were injected with 0.2 ml of the cell suspension at the axilla of the right forelimb (2.0×10^6 cells/each), and were injected with drugs the day after inoculation with breast cancer cells. […]
Metastasis of murine breast cancer in mice was detected using a small animal in vivo optical imaging system (Perkin Elmer, IVIS Lumina XRMS Series III) on days 5, 10, 20, and 30 after drug administration, respectively, which was done at Shanghai Medical College of Fudan University.

Where [5] appears, read: vs negative control tumor weight.

On to `Nc1nc(=O)c2ncn(C3OC4COP(=O)(O)OC5C(COP(=O)(O)OC3C4O)OC(n3cnc4c(N)ncnc43)C5O)c2[nH]1` (stereo not drawn) [cGAMP, 2′3′-cGAMP], for which the “Average tumor weight” value was 1.138 ± 0.127 g in experiment [1] (n = 10, mean ± SD); 0.784 ± 0.135 g in experiment [2] (n = 10, mean ± SD); 0.862 ± 0.156 g in experiment [3] (n = 10, mean ± SD). Moreover, the “Average tumor inhibition rate (%)” value in experiment [1] (setting [5]) came to 60.0%; in experiment [2] (setting [5]) it was 65.0%; in experiment [3] (setting [5]), 61.9%. The “Alveolar lavage fluid (IgA)” value with OVA stood at 2.3 ± 0.2. The “Serum (IgG)” value in the experiment with OVA was found to be 17.5 ± 0.9. Moreover, the “TREM2” value in the experiment with TREM2 turned out to be 55.38 ± 0.27 pg/mg. In addition, in experiment [4] (day 5 after drug administration), the “Metastasis of breast cancer, Day 5” value is “No”. Also, in experiment [4] (day 10 after drug administration), the “Metastasis of breast cancer, Day 10” value is given as “No”. Also, the “Metastasis of breast cancer, Day 20” value in experiment [4] (day 20 after drug administration) is listed as “No”.
